Tests used:
[1] = molecular target: T1, GHSR1a (Homo sapiens, UniProt Q92847); experiment: Calcium FLIPR assay, GHSR-1a antagonism (reduction of ghrelin response); type: cell-based; details: HEK293/GHSR1a cells, ghrelin 10 nM
T1 construct: expressed in transfected cells; host or cells: HEK293
Method in brief: (§1)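 Uses HEK293 cells expressing GHSR1a, loaded with calcium dye, with FLIPR fluorescence followed for 2 min after addition at t=20 s. Agonism: compound alone. Antagonism: compound with 10 nM ghrelin, potency from reduction of ghrelin response; EC50/IC50 from dose-response curves.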

[2] = molecular target: T1, GHSR1a; experiment: Calcium FLIPR assay, GHSR-1a agonism; type: cell-based; details: HEK293/GHSR1a cells
Method in brief: as §1

[3] = test system: C57BL/6J mice; experiment: Food intake test in mouse (GHSR1a antagonists); type: in vivo; details: dose not given
Method in brief: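 Male C57BL/6J mice (18-22 g) were fasted overnight (16 h before dosing), then randomized by body weight to vehicle or test agent (n=6 each). Cumulative food intake was measured at 1, 2, 4, 8 and 24 hrs post-dose as premeasured food minus uneaten food.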

[4] = Metabolic Stability (H = Human); type: in vitro ADME
[5] = Metabolic Stability (M = Mouse); type: in vitro ADME
[6] = test system: rat; experiment: Food intake in rat (PO, with or without ANA); type: in vivo; details: PO + ANA

T1 sequence (Q92847 whole entry): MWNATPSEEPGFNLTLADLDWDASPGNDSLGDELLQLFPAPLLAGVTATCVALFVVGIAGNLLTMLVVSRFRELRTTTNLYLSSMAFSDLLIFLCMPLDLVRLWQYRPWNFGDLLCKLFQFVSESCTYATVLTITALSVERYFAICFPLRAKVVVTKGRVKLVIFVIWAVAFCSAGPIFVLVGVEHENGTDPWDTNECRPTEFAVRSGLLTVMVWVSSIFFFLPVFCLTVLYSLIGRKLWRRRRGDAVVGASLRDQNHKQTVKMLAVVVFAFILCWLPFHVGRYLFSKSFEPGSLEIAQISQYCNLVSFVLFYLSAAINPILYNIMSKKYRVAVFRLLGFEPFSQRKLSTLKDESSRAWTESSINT

CC(NC(=O)N(C)C1CCN(C)CC1)c1ccc(-c2cncc(F)n2)c(Cl)c1Cl (stereo not shown) [Compound H0795, 3-(1-(2,3-dichloro-4-(6-fluoropyrazin-2-yl)phenyl)ethyl)-1-methyl-1-(1-methylpiperidin-4-yl)urea]
IC50 [1]: 4 nM
EC50 [2]: > 30000 nM
Mouse Food Intake, result in words ([3]; PO + ANA (ANAM), mice): inhib
Mouse Food Intake, result in words ([3]; PO): NSE
Metabolic Stability H [4]: High H High M
Metabolic Stability M [5]: High H High M
Food intake in rat, result in words [6]: no activity

Source: patent publication US9546157B2, “Asymmetric piperidinyl-substituted ureas as medicines” (Helsinn Healthcare SA, priority 2014, dated 2017)
